Reference: the SangsterLogP compilation

Test: method code SF-AS, from DOI: 10.1016/0021-9673(94)85294-4

Point of comparison: `CCNC(=O)c1cc2ccccc2[nH]1`, logP 2.32. Against it:
- CNC(=O)c1c[nH]c2ccccc12 — lower, 1.25
- CNC(=O)c1cc2ccccc2[nH]1 — lower, 1.9
- COC(=O)c1cccn1C — lower, 1.8
- CCNC(=O)c1ccc[nH]1 — lower, 0.8
- NC(=O)c1cc2ccccc2[nH]1 — lower, 1.61
- CCCOC(=O)c1ccoc1 — within 0.2 log units, 2.36
- CCOC(=O)c1ccc[nH]1 — lower, 1.73
- CCNC(=O)c1cccn1C — lower, 1.09
- Cn1cccc1C(N)=O — lower, 0.45
- CCCNC(=O)c1ccccc1 — lower, 1.72
- CCNC(=O)c1ccccc1 — lower, 1.28
- CCCNC(=O)c1cc2ccccc2[nH]1 — higher, 2.8
- COC(=O)c1cc2ccccc2[nH]1 — higher, 2.78
- CCCNC(=O)c1ccoc1 — lower, 1.2
- CNC(=O)c1ccc[nH]1 — lower, 0.42
- CCCNC(=O)c1cc2ccccc2o1 — higher, 2.65
- CCOC(=O)c1cc2ccccc2o1 — higher, 3.05
- CCCNC(=O)c1cccn1C — lower, 1.63
- CCNC(=O)c1c[nH]c2ccccc12 — lower, 1.62
- CCCNC(=O)c1ccco1 — lower, 1.1
- CNC(=O)c1cccn1C — lower, 0.71
- NC(=O)c1cc2ccccc2o1 — lower, 1.54
- NC(=O)c1ccc[nH]1 — lower, 0.09
- CCNC(=O)c1cc2ccccc2o1 — within 0.2 log units, 2.22
- CCCNC(=O)c1ccc[nH]1 — lower, 1.25
- CNC(=O)c1cc2ccccc2o1 — lower, 1.85
